Measurements as given in US10829492B2, “Amino pyrazolopyrimidine compound used as neurotrophic factor tyrosine kinase receptor inhibitor” (CHIA TAI TIANQING PHARMACEUTICAL GROUP CO., LTD., priority 2016, dated 2020).

What was measured:
JAK2 kinase = JAK2 kinase (Homo sapiens (Human), UniProt O60674); experiment: HTRF assay for inhibitory activity (IC50) against JAK2 kinase; format: biochemical; conditions: ATP 5 μM, kinase 0.05 nM
Description: 2. Assay for Inhibitory Activity (IC50) Against JAK2 Kinase
A testing platform for JAK2 kinase activity was established based on Homogeneous Time-Resolved Fluorescence (HTRF) assay, and the activities of the compounds were tested using the platform. The compounds were subjected to three-fold gradient dilution with 100% DMSO with a starting concentration of 1 mM (11 concentrations in total). 4 μL of diluted sample for each concentration was added to 96 μL of reaction buffer (50 mM HEPES, pH7.4, 10 mM MgCl2, 1 mM EDTA, 0.01% Tween-20, 0.005% BSA and 2 mM DTT) and mixed homogeneously. 2.5 μL of the resulting liquid was then added to a 384-well plate (OptiPlate-384, purchased from PerkinElmer), and 5 μL of JAK2 kinase (purchased from Carna, and the final concentration thereof is 0.05 nM) was added, and mixed homogeneously by centrifugation. Then 2.5 μL of a mixture of ATP (the final concentration is 5 μM) and TK peptide (HTRF® KinEASE™-TK, purchased from Cisbio, and the final concentration is 100 nM) was added to initiate the reaction (the total reaction volume is 10 μL). The 384-well plate was placed in an incubator to incubate for 120 min at 23° C. Then the reaction was terminated by adding 5 μL of Eu3+ cryptate-labled anti-phosphotyrosine antibody (purchased from Cisbio), and 5 μL of Streptavidin-XL-665 (HTRF® KinEASE™-TK, purchased from Cisbio). After incubated for 1 hr in the incubator, the fluorescence values were read on Envision (purchased from PerkinElmer). The excitation wavelength was 320 nm, and the emission wavelengths for detection were 665 nm and 620 nm. The enzymatic activity was represented by a ratio of the two readout at the two emission wavelengths. The enzymatic activity for each compound was tested at 11 concentrations, and IC50 values of the compounds were obtained by calculating the data using GraFit6.0 software (Erithacus Software).

TrkC kinase = TrkC kinase (Homo sapiens (Human), UniProt Q16288); experiment: HTRF assay for inhibitory activity (IC50) against NTRK kinase, TrkC; format: biochemical; conditions: ATP 20 μM, kinase 1 nM
Chain of TrkC kinase (Q16288 32-839): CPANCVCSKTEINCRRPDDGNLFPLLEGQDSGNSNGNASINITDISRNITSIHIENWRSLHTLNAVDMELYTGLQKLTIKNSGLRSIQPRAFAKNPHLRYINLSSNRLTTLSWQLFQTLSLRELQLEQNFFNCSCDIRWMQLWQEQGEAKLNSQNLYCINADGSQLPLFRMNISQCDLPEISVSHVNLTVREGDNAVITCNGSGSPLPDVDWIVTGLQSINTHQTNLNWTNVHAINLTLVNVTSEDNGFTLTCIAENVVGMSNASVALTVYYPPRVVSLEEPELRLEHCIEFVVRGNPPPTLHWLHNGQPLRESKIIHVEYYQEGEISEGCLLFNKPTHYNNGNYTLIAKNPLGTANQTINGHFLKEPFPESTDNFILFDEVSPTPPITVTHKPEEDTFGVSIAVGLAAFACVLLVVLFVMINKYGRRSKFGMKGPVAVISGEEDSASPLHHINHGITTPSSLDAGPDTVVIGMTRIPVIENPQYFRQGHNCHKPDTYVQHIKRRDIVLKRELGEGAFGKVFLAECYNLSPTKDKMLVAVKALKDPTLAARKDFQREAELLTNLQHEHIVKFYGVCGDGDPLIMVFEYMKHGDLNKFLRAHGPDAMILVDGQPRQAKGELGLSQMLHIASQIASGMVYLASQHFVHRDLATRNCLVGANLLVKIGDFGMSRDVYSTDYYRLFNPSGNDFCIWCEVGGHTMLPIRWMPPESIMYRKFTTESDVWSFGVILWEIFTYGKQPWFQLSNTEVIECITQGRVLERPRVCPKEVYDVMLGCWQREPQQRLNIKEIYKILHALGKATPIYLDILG
Description: (§1) 1. Assay for Inhibitory Activity (IC50) Against NTRK Kinase
(§2) A testing platform for TrkA, TrkB and TrkC kinase activity was established based on Homogeneous Time-Resolved Fluorescence (HTRF) assay, and the activities of the compounds were tested using the platform. The compounds were subjected to three-fold gradient dilution with 100% DMSO with a starting concentration of 1 mM (11 concentrations in total). 4 μL of diluted sample for each concentration was added to 96 μL of reaction buffer (50 mM HEPES, pH7.4, 5 mM MgCl2, 1 mM NaVO3, 0.001% Tween-20, 0.01% BSA and 1 mM DTT) and mixed homogeneously to be used as a 4* compound. The reaction buffer was used to formulate 2* TrkA, TrkB and TrkC kinases (purchased from Carna Biosciences 08-186, 08-187, 08-197, and the final concentrations thereof were 0.5 nM, 0.1 nM, and 1 nM, respectively) and 4* substrate mixture (ATP+TK peptide) (wherein the final concentrations of ATP were 40 μM, 50 μM, and 20 μM, respectively; TK peptide, HTRF® KinEASE™-TK, was purchased from Cisbio, and the final concentration thereof was 100 nM) for use. 2.5 μL of the 4* compound was added to a 384-well plate (OptiPlate-384, purchased from PerkinElmer), and then 5 μL of the 2* TrkA, TrkB and TrkC kinases were added, and mixed homogeneously by centrifugation. Then 2.5 μL of the 4* substrate mixture was added to initiate the reaction (the total reaction volume is 10 μL). The 384-well plate was placed in an incubator and incubated for 60 min at 23° C. Then the reaction was terminated by adding 5 μL of Eu3+ cryptate-labeled anti-phosphotyrosine antibody (HTRF® KinEASE™-TK, purchased from Cisbio), and 5 μL of Streptavidin-XL-665 (HTRF® KinEASE™-TK, purchased from Cisbio). After incubated for 1 hr in the incubator, the fluorescence values were read on Envision (purchased from PerkinElmer). The excitation wavelength was 320 nm, and the emission wavelengths for detection were 665 nm and 620 nm. The enzymatic activity was represented by a ratio of the two readout at the two emission wavelengths. The enzymatic activity for each compound was tested at 11 concentrations, and IC50 values of the compounds were obtained by calculating the data using GraFit6.0 software (Erithacus Software).

[1] = Pharmacokinetic assay in rats; format: in vivo; conditions: rat, po, male SD rats, 5 mg/kg single intragastric administration, plasma; for AUC(0-inf): read-out: AUCINF_obs
Description: Male SD rats were available from Beijing Vital River Laboratory Animal Technology Co., Ltd. The rats were allocated with three rats per group, and separately administered the suspension of a sample to be tested (5 mg/kg) by single intragastric administration. Before the experiment, the animals were fasted overnight, and the fasting time was from 10 hrs before administration to 4 hrs after administration. After administration, a blood sample was taken at 0.25 hr, 0.5 hr, 1 hr, 2 hrs, 4 hrs, 6 hrs, 8 hrs and 24 hrs. After the animals were narcotized with isoflurane using an anaesthesia machine for small animals, 0.3 mL of whole blood was taken from fundus venous plexus, and placed in a heparin anticoagulant tube. At 4° C., the sample was centrifuged at 4000 rpm for 5 min, and plasma was transferred to a centrifuge tube and preserved at −80° C. until the analysis was started. The sample in plasma was extracted by the protein precipitation method, and the extracted liquid was analyzed by LC/MS/MS.

TrkB kinase = TrkB kinase (Homo sapiens (Human), UniProt Q16620); experiment: HTRF assay for inhibitory activity (IC50) against NTRK kinase, TrkB; format: biochemical; conditions: ATP 50 μM, kinase 0.1 nM
Chain of TrkB kinase (Q16620 32-822): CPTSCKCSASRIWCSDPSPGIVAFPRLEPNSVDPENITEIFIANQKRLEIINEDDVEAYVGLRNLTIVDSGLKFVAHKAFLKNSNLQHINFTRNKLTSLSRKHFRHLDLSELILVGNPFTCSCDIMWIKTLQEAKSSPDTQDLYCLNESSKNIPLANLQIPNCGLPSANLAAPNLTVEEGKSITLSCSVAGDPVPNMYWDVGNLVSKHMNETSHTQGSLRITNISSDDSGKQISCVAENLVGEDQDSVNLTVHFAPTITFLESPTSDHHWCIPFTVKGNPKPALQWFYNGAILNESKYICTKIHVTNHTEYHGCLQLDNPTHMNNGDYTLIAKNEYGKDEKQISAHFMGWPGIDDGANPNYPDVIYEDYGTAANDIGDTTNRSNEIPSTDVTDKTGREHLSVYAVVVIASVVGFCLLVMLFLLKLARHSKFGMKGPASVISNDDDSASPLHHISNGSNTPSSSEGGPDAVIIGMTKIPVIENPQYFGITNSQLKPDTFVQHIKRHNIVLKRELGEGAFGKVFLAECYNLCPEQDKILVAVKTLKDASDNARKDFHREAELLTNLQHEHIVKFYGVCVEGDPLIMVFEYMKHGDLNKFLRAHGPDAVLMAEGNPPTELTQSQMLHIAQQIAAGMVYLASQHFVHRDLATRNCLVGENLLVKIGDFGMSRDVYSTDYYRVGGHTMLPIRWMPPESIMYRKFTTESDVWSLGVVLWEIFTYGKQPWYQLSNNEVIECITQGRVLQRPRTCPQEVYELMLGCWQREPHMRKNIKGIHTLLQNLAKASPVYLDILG
Description: as §1, §2

[2] = biological target: TrkA^G667C (Kinase domain) kinase (Homo sapiens (Human), UniProt P04629, G667C); experiment: HTRF assay for inhibitory activity (IC50) against TrkA^G667C kinase; format: biochemical; conditions: mutant TrkA kinase, ATP 15 μM, kinase 0.5 nM
Chain of TrkA^G667C (Kinase domain) kinase (P04629 510-781 G667C): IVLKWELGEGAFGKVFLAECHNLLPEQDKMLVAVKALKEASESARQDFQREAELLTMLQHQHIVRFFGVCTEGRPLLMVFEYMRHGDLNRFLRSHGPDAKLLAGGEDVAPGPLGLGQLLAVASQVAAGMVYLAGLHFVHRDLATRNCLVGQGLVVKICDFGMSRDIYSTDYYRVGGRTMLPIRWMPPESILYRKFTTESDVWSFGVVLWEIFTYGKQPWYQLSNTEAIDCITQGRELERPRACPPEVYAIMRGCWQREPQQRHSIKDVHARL
Description: 3. Assay for Inhibitory Activity (IC50) Against TrkA^G667C Kinase
TrkA^G667C (Kinase domain) kinase was expressed in Sf9 cells (purchased from Invitrogen) using pIEX-Bac-4 (purchased from Merck), and purified by using Ni column affinity chromatography on AKTA Purifier (GE company). A testing platform for TrkA^G667C kinase activity was established based on Homogeneous Time-Resolved Fluorescence (HTRF) assay, and the activities of the compounds were tested using the platform. The compounds were subjected to five-fold gradient dilution with 100% DMSO with a starting concentration of 1 mM (8 concentrations in total). 4 μL of diluted sample for each concentration was added to 96 μL of reaction buffer (50 mM HEPES, pH7.4, 5 mM MgCl2, 1 mM NaVO3, 0.001% Tween-20, 0.01% BSA and 1 mM DTT) and mixed homogeneously to be used as a 4* compound. The reaction buffer was used to formulate 2* TrkA^G667C kinases (the final concentration was 0.5 nM) and a 4* substrate mixture (ATP+TK peptide) (wherein, the final concentration of ATP was 15 μM; TK peptide, HTRF® KinEASE™-TK, was purchased from Cisbio, and the final concentration thereof was 100 nM) for use. 2.5 μL of the 4* compound was added to a 384-well plate (OptiPlate-384, purchased from PerkinElmer), and then 5 μL of the 2* TrkA^G667C kinases were added, and mixed homogeneously by centrifugation. Then 2.5 μL of the 4* substrate mixture was added to initiate the reaction (the total reaction volume is 10 μL). The 384-well plate was placed in an incubator to incubate for 60 min at 23° C. Then the reaction was terminated by adding 5 μL of Eu3+ cryptate-labeled anti-phosphotyrosine antibody (HTRF KinEASE™-TK, purchased from Cisbio), and 5 μL of Streptavidin-XL-665 (HTRF® KinEASE™-TK, purchased from Cisbio). After incubated for 1 h in the incubator, the fluorescence values were read on Envision (purchased from PerkinElmer). The excitation wavelength was 320 nm, and the emission wavelengths for detection were 665 nm and 620 nm. The enzymatic activity was represented by a ratio of the two readout at the two emission wavelengths. […]

TrkA kinase = TrkA kinase (Homo sapiens (Human), UniProt P04629); experiment: HTRF assay for inhibitory activity (IC50) against NTRK kinase, TrkA; format: biochemical; conditions: kinase 0.5 nM
Chain of TrkA kinase (P04629 33-796): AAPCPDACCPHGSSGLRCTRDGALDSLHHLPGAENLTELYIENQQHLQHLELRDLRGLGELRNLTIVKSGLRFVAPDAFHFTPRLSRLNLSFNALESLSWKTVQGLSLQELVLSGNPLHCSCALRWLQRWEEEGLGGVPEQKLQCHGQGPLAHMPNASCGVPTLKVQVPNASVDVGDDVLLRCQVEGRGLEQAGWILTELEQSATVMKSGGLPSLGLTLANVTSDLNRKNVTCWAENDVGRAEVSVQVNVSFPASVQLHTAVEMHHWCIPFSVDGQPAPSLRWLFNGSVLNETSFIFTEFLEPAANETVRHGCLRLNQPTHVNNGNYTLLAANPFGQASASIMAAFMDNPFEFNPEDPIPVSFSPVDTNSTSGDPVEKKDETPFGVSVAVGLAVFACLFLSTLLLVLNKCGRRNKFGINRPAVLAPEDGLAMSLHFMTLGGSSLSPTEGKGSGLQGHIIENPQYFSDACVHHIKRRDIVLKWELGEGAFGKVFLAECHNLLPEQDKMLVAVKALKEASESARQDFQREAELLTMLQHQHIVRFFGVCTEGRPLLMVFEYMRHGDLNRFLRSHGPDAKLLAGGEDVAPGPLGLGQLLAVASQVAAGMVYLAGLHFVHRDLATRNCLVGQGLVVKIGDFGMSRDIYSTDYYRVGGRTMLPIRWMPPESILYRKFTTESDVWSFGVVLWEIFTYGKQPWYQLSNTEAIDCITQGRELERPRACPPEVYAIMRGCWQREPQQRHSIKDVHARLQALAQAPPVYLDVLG
Description: as §1, §2

Chain of JAK2 kinase (O60674 whole entry): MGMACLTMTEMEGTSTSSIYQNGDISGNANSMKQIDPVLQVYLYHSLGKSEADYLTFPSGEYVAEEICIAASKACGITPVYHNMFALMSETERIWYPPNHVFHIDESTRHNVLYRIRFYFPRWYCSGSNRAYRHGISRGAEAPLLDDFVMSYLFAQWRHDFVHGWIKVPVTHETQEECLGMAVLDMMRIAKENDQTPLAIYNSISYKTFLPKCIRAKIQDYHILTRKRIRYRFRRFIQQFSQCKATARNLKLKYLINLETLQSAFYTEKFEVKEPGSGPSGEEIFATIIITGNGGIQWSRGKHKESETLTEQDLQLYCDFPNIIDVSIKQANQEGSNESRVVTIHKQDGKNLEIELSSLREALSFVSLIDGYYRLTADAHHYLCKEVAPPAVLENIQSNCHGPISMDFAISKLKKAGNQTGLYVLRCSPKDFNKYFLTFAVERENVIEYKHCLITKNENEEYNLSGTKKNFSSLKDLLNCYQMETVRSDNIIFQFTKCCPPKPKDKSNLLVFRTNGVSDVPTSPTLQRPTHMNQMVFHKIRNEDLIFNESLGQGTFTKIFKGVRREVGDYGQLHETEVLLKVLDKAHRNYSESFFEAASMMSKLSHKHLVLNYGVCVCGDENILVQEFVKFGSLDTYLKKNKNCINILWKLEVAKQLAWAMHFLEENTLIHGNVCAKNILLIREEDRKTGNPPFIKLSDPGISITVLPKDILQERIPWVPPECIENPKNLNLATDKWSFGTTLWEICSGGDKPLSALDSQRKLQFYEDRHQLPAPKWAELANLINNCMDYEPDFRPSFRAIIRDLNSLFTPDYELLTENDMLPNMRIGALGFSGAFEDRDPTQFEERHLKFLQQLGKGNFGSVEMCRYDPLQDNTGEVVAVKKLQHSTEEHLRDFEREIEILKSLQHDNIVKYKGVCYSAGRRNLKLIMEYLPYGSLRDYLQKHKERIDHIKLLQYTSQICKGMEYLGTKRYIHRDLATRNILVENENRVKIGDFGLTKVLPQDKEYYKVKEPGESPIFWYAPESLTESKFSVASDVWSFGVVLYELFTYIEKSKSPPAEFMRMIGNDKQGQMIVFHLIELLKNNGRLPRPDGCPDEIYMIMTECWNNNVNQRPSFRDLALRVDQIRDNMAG

IC50 (JAK2 kinase) [nM] | IC50 (TrkC kinase) [nM] | Cmax [1] [ng/mL] | Tmax [1] [h] | half-life [1] [h] | AUC(0-inf) [1] [ng·h/mL] | IC50 (TrkB kinase) [nM] | IC50 [2] [nM] | IC50 (TrkA kinase; Table 1, ATP 40 μM) [nM] | IC50 (TrkA kinase; Table 2, ATP 40 μM) [nM] | Structure (SMILES)
> 100 | < 1 | 488 | 1 | 3.09 | 2240 | < 1 | < 10 | < 1 | < 1 | NC(=O)c1c(N)nn2ccc(N3C[C@@H](F)C[C@@H]3c3cc(F)ccc3F)nc12 [Example 36, 2-amino-5-((2R,4S)-2-(2,5-difluorophenyl)-4-fluoropyrrolidin-1-yl)pyrazolo[1,5-a]pyrimidine-3-carboxamide]
> 20 | < 1 | – | – | – | – | < 1 | < 1 | < 1 | < 1 | Nc1nn2ccc(N3CCC[C@@H]3c3cc(F)ccc3F)nc2c1C(=O)N[C@H]1CC[C@H](O)CC1 [Example 12, 2-amino-5-((R)-2-(2,5-difluorophenyl)pyrrolidin-1-yl)-N-((trans)-4-hydroxycyclohexyl)pyrazolo[1,5-a]pyrimidine-3-carboxamide]
> 10 | < 1 | 276 | 1.67 | 1.46 | 876 | < 1 | < 10 | < 1 | < 1 | CNC(=O)c1c(N)nn2ccc(N3C[C@@H](F)C[C@@H]3c3cc(F)ccc3F)nc12 [Example 39, 2-amino-5-((2R,4S)-2-(2,5-difluorophenyl)-4-fluoropyrrolidin-1-yl)-N-methylpyrazolo[1,5-a]pyrimidine-3-carboxamide]
